According to ChEMBL document CHEMBL6114946, “Development and characterization of pyridyl carboxamides as potent and highly selective Nav1.8 inhibitors” (Bioorg Med Chem Lett, 2025):
≈ marks a conversion by molar mass, not a printed value. Calls of active or inactive are those of the source. The calls are words filed in the database; no cut-off is given here.

Experiments:
[1] = biological target: T1, Sodium channel protein type 10 subunit alpha (Homo sapiens, UniProt Q9Y5Y9); assay: Inhibition of Nav1.8 (unknown origin) at 10 uM by Ionflux high-throughput automated patch method
Target sequence in this assay (Q9Y5Y9 whole entry, looked up): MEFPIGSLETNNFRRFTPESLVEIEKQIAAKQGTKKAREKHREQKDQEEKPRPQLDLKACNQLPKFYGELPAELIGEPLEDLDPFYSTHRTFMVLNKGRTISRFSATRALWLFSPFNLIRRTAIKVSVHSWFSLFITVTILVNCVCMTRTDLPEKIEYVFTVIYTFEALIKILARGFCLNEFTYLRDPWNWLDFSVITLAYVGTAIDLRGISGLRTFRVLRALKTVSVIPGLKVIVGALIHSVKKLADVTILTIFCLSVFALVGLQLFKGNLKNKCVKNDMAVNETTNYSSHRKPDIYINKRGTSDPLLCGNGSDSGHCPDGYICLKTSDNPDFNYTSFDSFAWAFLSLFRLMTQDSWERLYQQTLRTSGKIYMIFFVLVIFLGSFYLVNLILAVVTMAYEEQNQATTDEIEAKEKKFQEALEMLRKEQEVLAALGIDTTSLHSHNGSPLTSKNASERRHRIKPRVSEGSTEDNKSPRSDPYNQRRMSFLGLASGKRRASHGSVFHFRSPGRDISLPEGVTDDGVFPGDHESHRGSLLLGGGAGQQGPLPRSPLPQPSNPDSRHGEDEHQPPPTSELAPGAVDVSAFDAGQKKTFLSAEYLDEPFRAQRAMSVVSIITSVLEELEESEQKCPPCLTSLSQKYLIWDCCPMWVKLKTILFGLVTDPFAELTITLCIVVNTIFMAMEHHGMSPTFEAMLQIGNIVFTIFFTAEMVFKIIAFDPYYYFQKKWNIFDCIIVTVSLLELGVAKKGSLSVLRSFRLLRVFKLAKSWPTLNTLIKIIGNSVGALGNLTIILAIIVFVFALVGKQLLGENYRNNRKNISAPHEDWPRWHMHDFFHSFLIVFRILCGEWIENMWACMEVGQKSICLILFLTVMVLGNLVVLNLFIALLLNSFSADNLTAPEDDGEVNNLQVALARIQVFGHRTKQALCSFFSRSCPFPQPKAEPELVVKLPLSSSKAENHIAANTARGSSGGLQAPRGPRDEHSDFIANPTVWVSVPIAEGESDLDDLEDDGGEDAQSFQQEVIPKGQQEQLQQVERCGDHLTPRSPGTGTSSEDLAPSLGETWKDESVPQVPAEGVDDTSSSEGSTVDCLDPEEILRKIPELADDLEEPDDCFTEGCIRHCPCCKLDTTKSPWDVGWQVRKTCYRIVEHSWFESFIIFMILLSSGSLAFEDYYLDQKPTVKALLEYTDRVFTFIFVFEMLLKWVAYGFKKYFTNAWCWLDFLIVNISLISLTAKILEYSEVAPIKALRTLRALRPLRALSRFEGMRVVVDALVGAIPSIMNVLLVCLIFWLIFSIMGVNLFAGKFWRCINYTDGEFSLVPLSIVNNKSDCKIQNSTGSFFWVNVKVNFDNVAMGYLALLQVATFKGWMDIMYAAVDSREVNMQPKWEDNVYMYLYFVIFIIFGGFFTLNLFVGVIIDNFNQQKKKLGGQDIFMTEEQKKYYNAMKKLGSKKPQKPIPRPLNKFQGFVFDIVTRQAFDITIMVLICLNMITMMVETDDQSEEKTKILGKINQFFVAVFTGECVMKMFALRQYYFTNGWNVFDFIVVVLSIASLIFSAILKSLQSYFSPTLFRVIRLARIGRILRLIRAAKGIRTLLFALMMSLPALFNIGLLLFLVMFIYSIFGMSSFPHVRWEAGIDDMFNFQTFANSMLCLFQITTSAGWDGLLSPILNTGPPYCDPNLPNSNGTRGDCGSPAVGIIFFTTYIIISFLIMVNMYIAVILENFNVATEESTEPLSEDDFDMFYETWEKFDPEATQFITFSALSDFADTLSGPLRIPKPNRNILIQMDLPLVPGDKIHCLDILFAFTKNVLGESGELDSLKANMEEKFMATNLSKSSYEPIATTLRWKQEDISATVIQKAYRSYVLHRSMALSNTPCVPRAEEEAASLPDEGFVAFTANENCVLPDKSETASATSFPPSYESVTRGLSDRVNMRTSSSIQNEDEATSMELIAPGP

[2] = biological target: T1, Sodium channel protein type 10 subunit alpha; assay: Inhibition of Nav1.8 (unknown origin) over expressed in HEK cells assessed as reduction in deltamethrin-stimulated channel activation by FLIPR assay; format: cell-based
Target sequence in this assay (Q9Y5Y9 whole entry): as the sequence (Q9Y5Y9 whole entry, looked up) above

[3] = biological target: T1, Sodium channel protein type 10 subunit alpha; assay: Inhibition of human Nav1.8 with resting membrane potential at half inactivated state by PatchXpress high-throughput electrophysiology method
Target sequence in this assay (Q9Y5Y9 whole entry): as the sequence (Q9Y5Y9 whole entry, looked up) above

[4] = Kinetic solubility of the compound in pH 7.4 phosphate buffered saline measured after 2 hrs by LC/MS analysis; format: physicochemical; conditions: read-out: Kinetic_solubility
[5] = Genotoxicity in Salmonella typhimurium by Ames test; format: toxicity; conditions: salmonella enterica subsp. enterica serovar typhimurium
Cytochrome P450 3A4 = Cytochrome P450 3A4 (Homo sapiens, UniProt P08684); assay: Inhibition of CYP3A4 (unknown origin); format: ADME
[6] = biological target: Voltage-gated inwardly rectifying potassium channel KCNH2 (Homo sapiens, UniProt Q12809); assay: Inhibition of human ERG; format: toxicity
Sequence of Voltage-gated inwardly rectifying potassium channel KCNH2 (Q12809 whole entry): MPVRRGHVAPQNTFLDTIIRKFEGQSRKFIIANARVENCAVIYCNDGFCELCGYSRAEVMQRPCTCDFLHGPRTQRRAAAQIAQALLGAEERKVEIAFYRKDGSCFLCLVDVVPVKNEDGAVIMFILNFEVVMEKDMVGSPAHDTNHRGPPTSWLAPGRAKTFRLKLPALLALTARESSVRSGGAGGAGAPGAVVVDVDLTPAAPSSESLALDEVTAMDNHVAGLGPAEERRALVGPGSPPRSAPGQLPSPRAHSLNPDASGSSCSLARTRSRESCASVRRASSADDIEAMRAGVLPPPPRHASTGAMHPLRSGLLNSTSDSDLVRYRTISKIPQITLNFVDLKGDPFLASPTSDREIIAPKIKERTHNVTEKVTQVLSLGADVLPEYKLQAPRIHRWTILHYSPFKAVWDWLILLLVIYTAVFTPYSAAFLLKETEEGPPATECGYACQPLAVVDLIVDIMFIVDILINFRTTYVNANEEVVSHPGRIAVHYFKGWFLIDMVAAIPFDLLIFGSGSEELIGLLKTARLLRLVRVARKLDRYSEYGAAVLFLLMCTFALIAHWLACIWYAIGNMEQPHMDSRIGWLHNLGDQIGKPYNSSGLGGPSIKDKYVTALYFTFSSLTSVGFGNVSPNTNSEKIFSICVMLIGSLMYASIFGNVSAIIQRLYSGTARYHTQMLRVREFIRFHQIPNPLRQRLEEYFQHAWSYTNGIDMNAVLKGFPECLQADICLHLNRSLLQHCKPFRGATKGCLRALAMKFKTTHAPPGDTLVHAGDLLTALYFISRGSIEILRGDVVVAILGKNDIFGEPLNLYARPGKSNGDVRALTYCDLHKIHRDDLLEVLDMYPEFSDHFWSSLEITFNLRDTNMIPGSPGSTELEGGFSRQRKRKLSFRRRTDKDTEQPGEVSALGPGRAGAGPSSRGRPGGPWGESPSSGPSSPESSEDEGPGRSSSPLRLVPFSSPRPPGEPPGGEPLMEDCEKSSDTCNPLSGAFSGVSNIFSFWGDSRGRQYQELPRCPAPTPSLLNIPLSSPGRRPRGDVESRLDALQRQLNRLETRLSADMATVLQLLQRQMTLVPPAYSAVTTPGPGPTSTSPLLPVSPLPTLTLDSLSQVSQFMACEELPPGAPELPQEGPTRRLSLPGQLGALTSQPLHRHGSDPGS

Cytochrome P450 1A2 = biological target: T2, Cytochrome P450 1A2 (Homo sapiens, UniProt P05177); assay: Inhibition of CYP1A2 (unknown origin); format: ADME
T2 sequence (P05177 whole entry): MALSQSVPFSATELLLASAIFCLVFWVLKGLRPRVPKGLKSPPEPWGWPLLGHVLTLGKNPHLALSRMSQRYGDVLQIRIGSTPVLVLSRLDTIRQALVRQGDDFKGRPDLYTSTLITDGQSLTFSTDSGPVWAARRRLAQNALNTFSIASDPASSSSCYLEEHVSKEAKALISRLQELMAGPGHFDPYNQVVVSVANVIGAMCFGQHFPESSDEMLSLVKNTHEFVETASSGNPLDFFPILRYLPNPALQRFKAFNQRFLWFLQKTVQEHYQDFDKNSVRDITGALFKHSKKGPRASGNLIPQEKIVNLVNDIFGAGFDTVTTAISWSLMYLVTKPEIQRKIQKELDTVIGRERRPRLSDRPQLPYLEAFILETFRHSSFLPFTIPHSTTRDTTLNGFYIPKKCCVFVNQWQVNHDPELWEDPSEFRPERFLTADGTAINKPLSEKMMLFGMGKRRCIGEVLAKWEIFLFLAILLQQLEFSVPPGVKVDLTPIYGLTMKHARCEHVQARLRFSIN

[7] = Stability in human liver microsomes assessed as parent compound remaining measured after 60 mins; format: ADME, Microsome; conditions: read-out: Stability
[8] = biological target: Sodium channel protein type 10 subunit alpha (Mus musculus, UniProt Q6QIY3); assay: Inhibition of mouse Nav1.8 with resting membrane potential at half inactivated state by PatchXpress high-throughput electrophysiology method
Sequence of Sodium channel protein type 10 subunit alpha (Mus musculus, UniProt Q6QIY3) (Q6QIY3 whole entry): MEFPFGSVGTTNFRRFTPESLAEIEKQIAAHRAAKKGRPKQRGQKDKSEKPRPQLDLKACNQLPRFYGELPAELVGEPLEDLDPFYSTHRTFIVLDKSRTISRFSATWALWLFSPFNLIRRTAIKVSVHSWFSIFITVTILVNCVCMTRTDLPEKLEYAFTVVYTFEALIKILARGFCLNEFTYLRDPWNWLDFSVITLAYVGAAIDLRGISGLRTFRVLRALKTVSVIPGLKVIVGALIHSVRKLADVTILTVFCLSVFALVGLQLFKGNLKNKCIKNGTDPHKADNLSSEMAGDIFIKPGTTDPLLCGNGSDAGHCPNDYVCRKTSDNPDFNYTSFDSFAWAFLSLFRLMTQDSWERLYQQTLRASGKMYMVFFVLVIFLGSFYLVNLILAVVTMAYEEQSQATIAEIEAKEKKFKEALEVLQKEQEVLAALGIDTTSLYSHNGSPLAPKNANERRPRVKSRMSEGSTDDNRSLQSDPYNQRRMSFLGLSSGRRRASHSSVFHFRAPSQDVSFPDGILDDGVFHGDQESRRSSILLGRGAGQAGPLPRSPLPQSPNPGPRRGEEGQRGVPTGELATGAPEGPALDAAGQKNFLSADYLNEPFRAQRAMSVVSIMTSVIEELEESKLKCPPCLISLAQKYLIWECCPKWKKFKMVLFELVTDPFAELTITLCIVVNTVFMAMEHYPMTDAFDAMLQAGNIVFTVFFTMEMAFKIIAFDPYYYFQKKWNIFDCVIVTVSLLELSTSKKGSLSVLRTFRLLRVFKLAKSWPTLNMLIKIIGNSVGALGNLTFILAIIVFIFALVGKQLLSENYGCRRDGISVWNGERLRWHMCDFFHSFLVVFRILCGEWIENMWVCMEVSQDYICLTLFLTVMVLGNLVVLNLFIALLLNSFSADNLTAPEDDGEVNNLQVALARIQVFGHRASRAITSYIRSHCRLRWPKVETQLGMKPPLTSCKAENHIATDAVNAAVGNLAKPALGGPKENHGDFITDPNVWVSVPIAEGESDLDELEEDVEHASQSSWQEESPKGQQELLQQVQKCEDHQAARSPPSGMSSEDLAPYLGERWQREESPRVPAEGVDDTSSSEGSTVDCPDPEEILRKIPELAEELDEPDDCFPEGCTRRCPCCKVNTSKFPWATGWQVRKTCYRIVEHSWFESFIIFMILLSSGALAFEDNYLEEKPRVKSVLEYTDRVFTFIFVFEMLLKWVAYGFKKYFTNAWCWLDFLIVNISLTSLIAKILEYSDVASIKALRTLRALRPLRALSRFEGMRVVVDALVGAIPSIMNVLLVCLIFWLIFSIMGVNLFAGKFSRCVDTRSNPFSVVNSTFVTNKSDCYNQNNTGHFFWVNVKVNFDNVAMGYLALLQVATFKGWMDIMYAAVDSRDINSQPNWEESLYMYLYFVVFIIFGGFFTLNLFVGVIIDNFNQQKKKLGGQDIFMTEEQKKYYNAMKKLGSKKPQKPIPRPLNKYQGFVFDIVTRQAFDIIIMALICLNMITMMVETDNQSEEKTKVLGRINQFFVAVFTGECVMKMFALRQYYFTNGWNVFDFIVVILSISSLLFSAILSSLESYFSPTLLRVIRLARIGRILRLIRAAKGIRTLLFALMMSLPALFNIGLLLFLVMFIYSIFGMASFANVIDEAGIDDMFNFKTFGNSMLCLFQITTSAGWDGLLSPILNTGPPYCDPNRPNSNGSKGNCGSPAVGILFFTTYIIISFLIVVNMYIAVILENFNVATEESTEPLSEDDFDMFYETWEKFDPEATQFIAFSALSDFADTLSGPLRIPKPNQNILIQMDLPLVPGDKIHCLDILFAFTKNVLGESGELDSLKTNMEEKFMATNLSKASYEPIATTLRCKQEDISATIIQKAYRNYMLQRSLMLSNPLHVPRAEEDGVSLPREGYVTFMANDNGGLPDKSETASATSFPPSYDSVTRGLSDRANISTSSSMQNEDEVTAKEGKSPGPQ

[9] = Protein binding in human plasma assessed as unbound fraction; format: ADME, cell-free
[10] = Clearance in rat at 1 mg/kg; format: ADME, organism-based; conditions: in vivo

| Structure (SMILES) | inhibition [1] | IC50 [2] [nM] | IC50 [3] [nM] | other results |
| --- | --- | --- | --- | --- |
| CS(=O)(=O)c1cccc(NC(=O)c2cc(C(F)(F)F)cnc2Oc2ccc(F)cc2)c1 | Active | 2900 | – | – |
| COc1cc(F)ccc1Oc1ncc(C(F)(F)F)cc1C(=O)Nc1cccc(P(C)(C)=O)c1 | Active | 3000 | – | – |
| COc1cc(F)ccc1Oc1ccncc1C(=O)Nc1cccc(S(C)(=O)=O)c1 | inactive | – | > 10000 | – |
| COc1cc(F)ccc1Oc1ncc(C(F)(F)F)cc1C(=O)Nc1ccncc1 | Active | 560 | – | solubility kinetic at 2 h [4]: 19 µg/mL (≈ 46.6 µM) |
| CS(=O)(=O)c1cccc(NC(=O)c2cc(C(F)(F)F)cnc2Oc2ccccc2)c1 | Active | 1600 | – | – |
| CS(=O)(=O)c1cccc(NC(=O)c2cc(C(F)(F)F)cnc2Oc2ccc(OC(F)(F)F)cc2)c1 | Active | – | 20 | solubility kinetic at 2 h [4]: 4 µg/mL (≈ 7.69 µM) |
| COc1cc(F)ccc1Oc1ncc(C(F)(F)F)cc1C(=O)NCc1cccnc1N1CCOCC1 | inactive | – | > 10000 | – |
| Cc1cc(OC(F)(F)F)ccc1Oc1ncc(C(F)(F)F)cc1C(=O)Nc1cccc(S(C)(=O)=O)c1 | Active | – | 35 | solubility kinetic at 2 h [4]: 1.4 µg/mL (≈ 2.62 µM) |
| CS(=O)(=O)c1cccc(NC(=O)c2cc(C(F)(F)F)cnc2Oc2ccc(OC(F)(F)F)cc2Cl)c1 | Active | 24 | 15 | solubility kinetic at 2 h [4]: 1.5 µg/mL (≈ 2.7 µM) |
| O=C(Nc1ccc[n+]([O-])c1)c1cc(C(F)(F)F)cnc1Oc1ccc(F)cc1Cl | Active | – | 56 | Activity [5]: Non-toxic; INH (Cytochrome P450 3A4): > 30 µM; IC50 [6]: 15000 nM; INH (Cytochrome P450 1A2): > 30 µM; remaining at 1 h [7]: 95%; IC50 [8]: 920 nM; fraction unbound [9]: 0.1; clearance [10]: 3.3 mL/min/kg; solubility kinetic at 2 h [4]: 0.084 µg/mL (≈ 0.196 µM) |
| CS(=O)(=O)c1cccc(NC(=O)c2cc(C(F)(F)F)cnc2Oc2ccc(F)cc2F)c1 | Active | 87 | – | solubility kinetic at 2 h [4]: 0.3 µg/mL (≈ 0.635 µM) |
| Cc1cc(F)ccc1Oc1ncc(C(F)(F)F)cc1C(=O)Nc1cccc(S(C)(=O)=O)c1 | Active | 120 | – | – |
| COc1cc(F)ccc1Oc1ncc(C(F)(F)F)cc1C(=O)Nc1ccc[n+]([O-])c1 | Active | 1100 | – | solubility kinetic at 2 h [4]: 128 µg/mL (≈ 302 µM) |
| COc1cc(F)ccc1Oc1cc(C(F)(F)F)ncc1C(=O)Nc1cccc(S(C)(=O)=O)c1 | Active | 92 | 32 | – |
| Nc1ccc[n+]([O-])c1 | – | – | – | Activity [5]: Non-toxic |
| CN=S(C)(=O)c1cccc(NC(=O)c2cc(C(F)(F)F)cnc2Oc2ccc(F)cc2OC)c1 (stereo unspecified) | Active | 69 | 68 | solubility kinetic at 2 h [4]: 27 µg/mL (≈ 54.3 µM) |
| COc1cc(F)ccc1Oc1nc(C(F)(F)F)ccc1C(=O)Nc1cccc(S(C)(=O)=O)c1 | Active | 102 | – | – |
| CC(C)Oc1ncc(C(F)(F)F)cc1C(=O)Nc1cccc(S(C)(=O)=O)c1 | inactive | – | > 10000 | – |
| CS(=O)(=O)c1cccc(NC(=O)c2cc(C(F)(F)F)cnc2Oc2ccc(F)cc2Cl)c1 | Active | 251 | – | – |
| CS(=O)(=O)c1cccc(NC(=O)c2cc(C(F)(F)F)cnc2Oc2cccnc2)c1 | Active | > 5000 | – | – |
| COc1cc(F)ccc1Oc1ncccc1C(=O)Nc1cccc(S(C)(=O)=O)c1 | inactive | – | > 10000 | – |
| COc1cc(F)ccc1Oc1nccnc1C(=O)Nc1cccc(S(C)(=O)=O)c1 | inactive | – | > 10000 | – |
| CS(=O)(=O)c1cccc(NC(=O)c2cc(C(F)(F)F)cnc2Oc2c(F)cccc2F)c1 | Active | > 5000 | – | – |

More lines, main results first:

| inhibition [1] | IC50 [2] [nM] | IC50 [3] [nM] | Structure (SMILES) | other results |
| --- | --- | --- | --- | --- |
| inactive | – | > 10000 | COc1cc(F)ccc1Oc1nc(C(F)(F)F)ncc1C(=O)Nc1cccc(S(C)(=O)=O)c1 | – |
| Active | 1300 | – | CS(=O)(=O)c1cccc(NC(=O)c2cc(C(F)(F)F)cnc2Oc2cc(F)cc(F)c2)c1 | – |
| Active | – | 40 | COc1cc(F)ccc1Oc1ncc(C(F)(F)F)cc1C(=O)Nc1cccc([S+](C)[O-])c1 (stereo unspecified) | – |
| Active | 22 | 23 | COc1cc(F)ccc1Oc1ncc(C(F)(F)F)cc1C(=O)Nc1cccc(S(C)(=N)=O)c1 (stereo unspecified) | solubility kinetic at 2 h [4]: 48 µg/mL (≈ 99.3 µM) |
| Active | 540 | 250 | COc1cc(F)ccc1Oc1ncc(C(F)(F)F)cc1C(=O)Nc1ccnnc1 | solubility kinetic at 2 h [4]: 70 µg/mL (≈ 171 µM) |
| inactive | – | > 10000 | COc1cc(F)ccc1Oc1ncc(C(F)(F)F)cc1C(=O)NCCN(C)C | – |
| Active | 33 | 36 | COc1cc(F)ccc1Oc1nc2ccccc2nc1C(=O)Nc1cccc(S(C)(=O)=O)c1 | – |
| inactive | – | > 10000 | COCCCNC(=O)c1cc(C(F)(F)F)cnc1Oc1ccc(F)cc1OC | – |
| Active | 240 | – | COc1cc(F)ccc1Oc1ncc(C(F)(F)F)cc1C(=O)Nc1ccncn1 | – |
| Active | 2200 | – | COc1cc(F)ccc1Oc1ncc(C(F)(F)F)cc1C(=O)Nc1cccnc1 | – |
| Active | > 5000 | – | COc1cc(F)ccc1Oc1ncc(C(F)(F)F)cc1C(=O)Nc1ccccn1 | – |
